# Measurements reported in US6723727B1, “Substituted purine derivatives, processes for their preparation, their use, and compositions comprising them” (Hoechst Aktiengesellschaft, priority 1996, dated 2004).
# Biological target: human vitronectin receptor αvβ3 (Homo sapiens, UniProt P05106+P06756)
# Assay: Inhibition of binding of kistrin to human vitronectin receptor (αvβ3 ELISA test, K/VnR)
# Settings: for K/VnR Inhibition at 10 μM (in %): 10 μM test compound
# human vitronectin receptor αvβ3, sequence (P06756 31-889 limits assumed): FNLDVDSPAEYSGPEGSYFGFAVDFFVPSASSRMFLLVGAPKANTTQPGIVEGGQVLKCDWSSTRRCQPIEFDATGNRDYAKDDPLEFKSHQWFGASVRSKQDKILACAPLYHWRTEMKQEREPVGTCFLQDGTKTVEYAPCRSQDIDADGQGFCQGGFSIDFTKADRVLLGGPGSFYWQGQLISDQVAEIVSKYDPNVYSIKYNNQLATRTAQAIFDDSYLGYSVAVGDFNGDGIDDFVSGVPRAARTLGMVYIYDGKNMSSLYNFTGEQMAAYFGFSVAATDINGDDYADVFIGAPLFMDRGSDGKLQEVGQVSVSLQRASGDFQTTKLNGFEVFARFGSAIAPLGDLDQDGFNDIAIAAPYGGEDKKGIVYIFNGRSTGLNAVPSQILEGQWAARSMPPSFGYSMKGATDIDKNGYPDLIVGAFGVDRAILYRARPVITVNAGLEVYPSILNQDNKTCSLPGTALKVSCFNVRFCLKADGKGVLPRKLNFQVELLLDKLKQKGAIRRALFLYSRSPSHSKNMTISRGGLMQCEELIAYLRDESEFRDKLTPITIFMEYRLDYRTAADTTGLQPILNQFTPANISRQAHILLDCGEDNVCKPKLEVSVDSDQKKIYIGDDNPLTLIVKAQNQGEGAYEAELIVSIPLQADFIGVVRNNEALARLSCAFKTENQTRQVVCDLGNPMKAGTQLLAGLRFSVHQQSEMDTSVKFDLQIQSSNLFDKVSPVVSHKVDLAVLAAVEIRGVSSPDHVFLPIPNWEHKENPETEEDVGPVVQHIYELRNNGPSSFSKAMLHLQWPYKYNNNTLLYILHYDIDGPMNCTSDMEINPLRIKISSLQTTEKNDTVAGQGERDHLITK
# human vitronectin receptor αvβ3, sequence (P06756 891-1048 limits assumed): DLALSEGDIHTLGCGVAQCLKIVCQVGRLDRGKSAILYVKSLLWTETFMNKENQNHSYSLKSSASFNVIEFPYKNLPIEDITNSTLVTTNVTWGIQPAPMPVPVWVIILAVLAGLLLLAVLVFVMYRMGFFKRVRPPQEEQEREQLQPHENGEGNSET
# human vitronectin receptor αvβ3, sequence (P05106 27-788): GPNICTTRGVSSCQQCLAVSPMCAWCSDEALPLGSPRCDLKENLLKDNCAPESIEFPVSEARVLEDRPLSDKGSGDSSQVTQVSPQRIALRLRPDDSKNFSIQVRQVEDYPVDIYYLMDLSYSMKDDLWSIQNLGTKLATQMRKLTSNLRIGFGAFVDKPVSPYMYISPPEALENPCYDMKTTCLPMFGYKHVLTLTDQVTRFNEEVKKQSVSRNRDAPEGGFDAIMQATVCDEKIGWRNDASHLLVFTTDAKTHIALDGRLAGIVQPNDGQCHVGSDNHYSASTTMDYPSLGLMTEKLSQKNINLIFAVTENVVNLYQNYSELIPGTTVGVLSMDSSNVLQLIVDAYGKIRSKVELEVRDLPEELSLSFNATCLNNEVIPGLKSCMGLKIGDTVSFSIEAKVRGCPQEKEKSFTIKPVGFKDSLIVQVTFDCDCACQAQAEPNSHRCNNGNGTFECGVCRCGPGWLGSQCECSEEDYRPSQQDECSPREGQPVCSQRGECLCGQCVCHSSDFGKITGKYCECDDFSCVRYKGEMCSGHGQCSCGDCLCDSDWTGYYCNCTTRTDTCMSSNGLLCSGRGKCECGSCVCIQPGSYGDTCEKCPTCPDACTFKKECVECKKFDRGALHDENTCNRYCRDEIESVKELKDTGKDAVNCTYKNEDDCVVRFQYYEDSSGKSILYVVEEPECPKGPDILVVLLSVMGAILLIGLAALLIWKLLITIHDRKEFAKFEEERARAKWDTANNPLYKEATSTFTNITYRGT
compound,measurement,value
"N=C(N)NCCCCCNc1ncnc2c1ncn2C[C@H](NC(=O)OCc1ccccc1)C(=O)O [Example 1, N^6-(1-(5-Guanidinopentyl))-N^9-(3-(2S-(benzyloxycarbonylamino)propionic acid))-adenine]",IC50,1100 nM
"N=C(N)NCCCCNc1ncnc2c1ncn2C[C@H](NC(=O)OCc1ccccc1)C(=O)O [Example 2, N^6-(1-(4-Guanidinobutyl))-N^9-(3-(2S-(benzyloxycarbonylamino)propionic acid))-adenine]",IC50,700 nM
"N=C(N)NCCCNc1ncnc2c1ncn2C[C@H](NC(=O)OCc1ccccc1)C(=O)O [Example 3, N^6-(1-(3-Guanidinopropyl))-N^9-(3-(2S-(benzyloxycarbonylamino)propionic acid))-adenine]",IC50,2200 nM
"O=C(N[C@@H](Cn1cnc2c(NCCCCNC3=NCCN3)ncnc21)C(=O)O)OCc1ccccc1 [Example 4, N^6-(1-(4-(4,5-Dihydro-1H-imidazol-2-ylamino)butyl))-N^9-(3-(2S-(benzyloxycarbonylamino)propionic acid))-adenine]",IC50,150 nM
"N=C(N)NCCCn1cnc2c(NCC[C@H](NC(=O)OCc3ccccc3)C(=O)O)ncnc21 [Example 12, N^6-(4-(2S-(Benzyloxycarbonylamino)butyric acid))-N^9-(1-(3-guanidinylpropyl))-adenine]",IC50,580 nM
"O=C(N[C@@H](CCNc1ncnc2c1ncn2CCCNC1=NCCN1)C(=O)O)OCc1ccccc1 [Example 13, N^6-(4-(2S-(Benzyloxycarbonylamino)butyric acid))-N^9-(1-(3-(4,5-dihydro-1H-imidazol-2-ylamino)propyl))-adenine]",IC50,190 nM
"N=C(N)NCCCCCn1cnc2c(NC[C@H](NC(=O)OCc3ccccc3)C(=O)O)ncnc21 [Example 14, N^6-(3-(2S-(Benzyloxycarbonylamino)propionic acid))-N^9-(1-(5-guanidinyl-pentyl))-adenine]",IC50,650 nM
"NCCCCCn1cnc2c(NC[C@H](NC(=O)OCc3ccccc3)C(=O)O)ncnc21 [Example 14c, N^6-(3-(2S-(Benzyloxycarbonylamino)propionic acid))-N^9-(1-(5-amino-pentyl))-adenine]",K/VnR Inhibition at 10 μM (in %),22%
"O=C(N[C@@H](CNc1ncnc2c1ncn2CCCCCNC1=NCCN1)C(=O)O)OCc1ccccc1 [Example 15, N^6-(3-(2S-(Benzyloxycarbonylamino)propionic acid))-N^9-(1-(5-(4,5-dihydro-1H-imidazol-2-ylamino)pentyl))-adenine]",IC50,210 nM
"N=C(N)NCCCn1cnc2c(NC[C@H](NC(=O)OCc3ccccc3)C(=O)O)ncnc21 [Example 16, N^6-(3-(2S-(Benzyloxycarbonylamino)propionic acid))-N^9-(1-(3-guanidinylpropyl))-adenine]",IC50,540 nM
"NCCCn1cnc2c(NC[C@H](NC(=O)OCc3ccccc3)C(=O)O)ncnc21 [Example 16b, N^6-(3-(2S-(Benzyloxycarbonylamino)propionic acid))-N^9-(1-(3-amino-propyl))-adenine]",K/VnR Inhibition at 10 μM (in %),29%
"N=C(N)NCCCCn1cnc2c(NC[C@H](NC(=O)OCc3ccccc3)C(=O)O)ncnc21 [Example 17, N^6-(3-(2S-(Benzyloxycarbonylamino)propionic acid))-^9-(1-(4guanidinyl-butyl))-adenine]",IC50,170 nM
O=C(N[C@@H](CNc1ncnc2c1ncn2CCCCNC1=NCCN1)C(=O)O)OCc1ccccc1 [Example 18],IC50,75 nM
"O=C(N[C@@H](Cn1cnc2c(N3CCC(C(=O)NC4=NCCCN4)CC3)ncnc21)C(=O)O)OCc1ccccc1 [Example 19, 2S-Benzyloxycarbonylamino-3-(6-(4-(1,4,5,6-tetrahydropyrimidin-2-yl-carbamoyl)piperidin-1-yl)purin-9-yl)propionic acid]",IC50,4 nM
"O=C(N[C@@H](Cn1cnc2c(NCCCCNc3nc4ccccc4[nH]3)ncnc21)C(=O)O)OCc1ccccc1 [Example 23, 3-(6-((4-(Benzimidazol-2-ylamino)butyl)amino)purin-9-yl)-2S-benzyloxycarbonylaminopropionic Acid]",IC50,160 nM
"O=C(N[C@@H](Cn1cnc2c(N3CCC(CNC4=NCCN4)CC3)ncnc21)C(=O)O)OCc1ccccc1 [Example 24, 2S-Benzyloxycarbonylamino-3-(6-(4-((4,5-dihydro-1H-imidazol-2-ylamino)-methyl)piperidin-1-yl)purin-9-yl)propionic Acid]",IC50,52 nM
"O=C(N[C@H](Cn1cnc2c(N3CCC(CNC4=NCCN4)CC3)ncnc21)C(=O)O)OCc1ccccc1 [Example 25, 2R-Benzyloxycarbonylamino-3-(6-(4-((4,5-dihydro-1H-imidazol-2-ylamino)-methyl)piperidin-1-yl)purin-9-yl)propionic Acid]",IC50,345 nM
"N=C(N)NCC1CCN(c2ncnc3c2ncn3C[C@H](NC(=O)OCc2ccccc2)C(=O)O)CC1 [Example 26, 2S-Benzyloxycarbonylamino-3-(6-(4-(guanidinomethyl)piperidin-1-yl)purin-9-yl)propionic Acid]",IC50,360 nM
